The target of test [1] is T1, AHR (Homo sapiens, UniProt P35869).
T1 sequence (P35869 11-848): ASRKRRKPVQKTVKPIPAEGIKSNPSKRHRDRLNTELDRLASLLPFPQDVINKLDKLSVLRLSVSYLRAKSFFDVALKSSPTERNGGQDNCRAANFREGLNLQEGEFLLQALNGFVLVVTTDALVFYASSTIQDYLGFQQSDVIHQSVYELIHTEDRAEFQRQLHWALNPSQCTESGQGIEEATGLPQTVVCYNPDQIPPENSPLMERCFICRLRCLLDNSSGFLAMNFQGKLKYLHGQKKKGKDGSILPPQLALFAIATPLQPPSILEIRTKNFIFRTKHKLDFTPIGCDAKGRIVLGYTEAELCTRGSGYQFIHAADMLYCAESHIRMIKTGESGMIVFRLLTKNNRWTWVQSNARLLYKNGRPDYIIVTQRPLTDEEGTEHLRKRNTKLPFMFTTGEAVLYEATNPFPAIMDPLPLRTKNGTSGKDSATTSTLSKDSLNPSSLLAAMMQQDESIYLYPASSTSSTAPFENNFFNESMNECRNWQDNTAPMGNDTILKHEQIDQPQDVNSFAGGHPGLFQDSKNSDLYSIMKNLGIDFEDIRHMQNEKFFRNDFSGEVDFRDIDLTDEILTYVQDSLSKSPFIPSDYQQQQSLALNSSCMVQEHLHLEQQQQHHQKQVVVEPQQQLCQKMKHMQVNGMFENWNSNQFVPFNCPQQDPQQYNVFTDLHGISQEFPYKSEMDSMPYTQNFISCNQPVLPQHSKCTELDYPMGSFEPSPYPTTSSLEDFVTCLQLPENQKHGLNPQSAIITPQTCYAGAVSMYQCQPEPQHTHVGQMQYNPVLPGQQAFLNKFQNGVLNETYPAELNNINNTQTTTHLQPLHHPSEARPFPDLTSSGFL
Briefly: In vitro assay 2: agonism in human cell line (transactivation assay).

Test [2] deals with T1, AHR. Kind of test: In vitro assay 1: antagonism in human cell line (transactivation assay, kynurenic acid prestimulated). Particulars: Assay 1: AHR-luc Hum Antagonism IC50 [M], 150 μM kynurenic acid, 20 hours, firefly luciferase.
[3] abbreviates: Assay 2: AHR-luc Hum Agonism IC50 [M], no kynurenic acid, 20 hours, firefly luciferase.
Where [4] appears, read: read-out: Assay 2: AHR-luc Hum Agonism IC50, no kynurenic acid, 20 hours, firefly luciferase.

What is called IC50 is the concentration that gives 50% inhibition.

Regarding `Cc1cccc(-n2nc(-c3ccc(Cl)cc3)cc(C(=O)NCC(O)C(F)(F)F)c2=O)c1` (centres unmarked) [Example 366, 6-(4-chlorophenyl)-2-(3-methylphenyl)-3-oxo-N-(3,3,3-trifluoro-2-hydroxypropyl)-2,3-dihydropyridazine-4-carboxamide], the IC50 is greater than 2e-05 M at AHR [1] (setting [3]) and 9.7e-07 M at AHR [2].
With `Cc1ccc(-c2cc(C(=O)NCC(C)O)c(=O)n(-c3cccc(F)c3)n2)cc1` (single isomer, unassigned; enantiomer 2) [Example 15, 2-(3-Fluorophenyl)-N-(2-hydroxypropyl)-6-(4-methylphenyl)-3-oxo-2,3-dihydropyridazine-4-carboxamide, Enantiomer 2], the values for the IC50 on AHR [1] (setting [4]) and on AHR [2] were greater than 2e-05 M and 2.62e-07 M, respectively.
For the compound `O=C(NCC(O)C(F)(F)F)c1cc(-c2ccc(Cl)c(Cl)c2)nn(-c2cccc(F)c2)c1=O` (centres unmarked) [Example 302, 6-(3,4-Dichlorophenyl)-2-(3-fluorophenyl)-3-oxo-N-(3,3,3-trifluoro-2-hydroxypropyl)-2,3-dihydropyridazine-4-carboxamide], the values for the IC50 against AHR [1] (setting [3]) and against AHR [2] were greater than 2e-05 M and 2.29e-07 M, respectively.
Regarding `O=C(NC(CO)C(F)(F)F)c1cc(-c2ccc(OC(F)(F)F)cc2)nn(-c2cccc(F)c2)c1=O` (single isomer, unassigned) [Example 171, 2-(3-Fluorophenyl)-3-oxo-N-(1,1,1-trifluoro-3-hydroxypropan-2-yl)-6-[4-(trifluoromethoxy)phenyl]-2,3-dihydropyridazine-4-carboxamide], the IC50 on AHR [1] (setting [4]) was greater than 2e-05 M; on AHR [2], 6.77e-07 M.
Consider `O=C(N[C@@H]1COC[C@@H]1O)c1cc(-c2ccc(C(F)(F)F)cc2)nn(-c2cccc(F)c2)c1=O` (racemic) [Example 341, 2-(3-fluorophenyl)-N-(cis-4-hydroxytetrahydrofuran-3-yl)-3-oxo-6-[4-(trifluoromethyl)phenyl]-2,3-dihydropyridazine-4-carboxamide], for which the IC50 on AHR [1] (setting [3]) is greater than 2e-05 M; against AHR [2], 8.45e-09 M.
As for `O=C(N[C@@H](CO)Cc1cnc[nH]1)c1cc(-c2ccc(Cl)cc2)nn(-c2cccc(F)c2)c1=O` [Example 161, 6-(4-Chlorophenyl)-2-(3-fluorophenyl)-N-[(2R)-1-hydroxy-3-(1H-imidazol-5-yl)propan-2-yl]-3-oxo-2,3-dihydropyridazine-4-carboxamide], the IC50 against AHR [1] (setting [3]) is greater than 2e-05 M; against AHR [2] it was 3.15e-07 M.
As to `O=C(N[C@@H]1CC[C@@H]1O)c1cc(-c2ccc(Cl)cc2)nn(-c2cccc(F)c2)c1=O` (racemic) [Example 356, 6-(4-chlorophenyl)-2-(3-fluorophenyl)-N-(cis-2-hydroxycyclobutyl)-3-oxo-2,3-dihydropyridazine-4-carboxamide], the IC50 against AHR [1] (setting [3]) is greater than 2e-05 M; at AHR [2], 4.18e-08 M.
As for `NC(=O)[C@H](CO)NC(=O)c1cc(-c2ccc(Cl)cc2)nn(-c2cccc(F)c2)c1=O` [Example 162, N-[(2S)-1-Amino-3-hydroxy-1-oxopropan-2-yl]-6-(4-chlorophenyl)-2-(3-fluorophenyl)-3-oxo-2,3-dihydropyridazine-4-carboxamide], the IC50 on AHR [1] (setting [3]) was greater than 2e-05 M; against AHR [2], 4.83e-07 M.
In the case of `C[C@H](O)[C@H](C)NC(=O)c1cc(-c2ccc(Cl)cc2)nn(-c2cc(Cl)cc(Cl)c2)c1=O` (relative stereo) [Example 312, 6-(4-Chlorophenyl)-2-(3,5-dichlorophenyl)-N-[(2S,3S)-3-hydroxybutan-2-yl]-3-oxo-2,3-dihydropyridazine-4-carboxamide], the figures for the IC50 on AHR [1] (setting [3]) and against AHR [2] were greater than 2e-05 M and 5.88e-07 M, respectively.
In the same order, the values of `O=C(NC(CO)C1CCOC1)c1cc(-c2ccc(Cl)cc2)nn(-c2cc(Cl)cc(Cl)c2)c1=O` (centres unmarked) [Example 310, 6-(4-Chlorophenyl)-2-(3,5-dichlorophenyl)-N-[2-hydroxy-1-(tetrahydrofuran-3-yl)ethyl]-3-oxo-2,3-dihydropyridazine-4-carboxamide] are greater than 2e-05 M and 4.34e-07 M.
On the same counts, the results for `COCC(O)CNC(=O)c1cc(-c2ccc(C)cc2)nn(-c2cccc(F)c2)c1=O` (centres unmarked) [Example 16, 2-(3-Fluorophenyl)-N-(2-hydroxy-3-methoxypropyl)-6-(4-methylphenyl)-3-oxo-2,3-dihydropyridazine-4-carboxamide] are greater than 2e-05 M and 1.74e-07 M.
For `O=C(NCC(O)C(F)(F)F)c1cc(-c2ccc(Cl)cc2)nn(-c2cc(F)cc(F)c2)c1=O` (centres unmarked) [Example 44, 6-(4-Chlorophenyl)-2-(3,5-difluorophenyl)-3-oxo-N-(3,3,3-trifluoro-2-hydroxypropyl)-2,3-dihydropyridazine-4-carboxamide], the IC50 is greater than 2e-05 M on AHR [1] (setting [3]) and 1.99e-08 M on AHR [2].
As for `CC(O)C(C)NC(=O)c1cc(-c2ccc(Cl)c(Cl)c2)nn(-c2cccc(F)c2)c1=O` (centres unmarked) [Example 304, 6-(3,4-Dichlorophenyl)-2-(3-fluorophenyl)-N-(3-hydroxybutan-2-yl)-3-oxo-2,3-dihydropyridazine-4-carboxamide], the IC50 is greater than 2e-05 M on AHR [1] (setting [3]) and 2.75e-07 M against AHR [2].
As to `C[C@@H](NC(=O)c1cc(-c2ccc(OC(F)(F)F)cc2)nn(-c2cccc(F)c2)c1=O)C(C)(C)O` [Example 381, 2-(3-fluorophenyl)-N-[(2R)-3-hydroxy-3-methylbutan-2-yl]-3-oxo-6-[4-(trifluoromethoxy)phenyl]-2,3-dihydropyridazine-4-carboxamide], the results for the IC50 on AHR [1] (setting [3]) and on AHR [2] were greater than 2e-05 M and 4.7e-08 M, respectively.
In the same order, the values of `Cc1ccc(-c2cc(C(=O)NCC(O)C(F)(F)F)c(=O)n(-c3cccc(F)c3)n2)cc1` (single isomer, unassigned; enantiomer 1) [Example 5, 2-(3-Fluorophenyl)-6-(4-methylphenyl)-3-oxo-N-(3,3,3-trifluoro-2-hydroxypropyl)-2,3-dihydropyridazine-4-carboxamide, enantiomer 1] are greater than 2e-05 M and 1.65e-08 M.
As for `O=C(N[C@@H](CO)Cc1ccccc1)c1cc(-c2ccc(Cl)cc2)nn(-c2cccc(F)c2)c1=O` [Example 219, (+)-6-(4-Chlorophenyl)-2-(3-fluorophenyl)-N-[(2R)-1-hydroxy-3-phenylpropan-2-yl]-3-oxo-2,3-dihydropyridazine-4-carboxamide], the IC50 at AHR [1] (setting [3]) was greater than 2e-05 M; at AHR [2], 3.38e-06 M.
In the same order, the values of `O=C(NCC1(O)CCCC1)c1cc(-c2ccc(Cl)cc2)nn(-c2cccc(F)c2)c1=O` [Example 326, 6-(4-chlorophenyl)-2-(3-fluorophenyl)-N-[(1-hydroxycyclopentyl)methyl]-3-oxo-2,3-dihydropyridazine-4-carboxamide] are greater than 2e-05 M and 6.47e-08 M.
For `O=C(NC(CO)C1CCOC1)c1cc(-c2ccc(Cl)c(F)c2)nn(-c2cccc(F)c2)c1=O` (single isomer, unassigned) [Example 295, 6-(4-Chloro-3-fluorophenyl)-2-(3-fluorophenyl)-N-[2-hydroxy-1-(tetrahydrofuran-3-yl)ethyl]-3-oxo-2,3-dihydropyridazine-4-carboxamide], the IC50 was greater than 2e-05 M on AHR [1] (setting [4]) and 8.3e-07 M against AHR [2].
In the case of `O=C(NC(CO)C1CCOC1)c1cc(-c2ccc(OC(F)F)cc2)nn(-c2cccc(F)c2)c1=O` (single isomer, unassigned) [Example 146, 6-[4-(Difluoromethoxy)phenyl]-2-(3-fluorophenyl)-N-{(2-hydroxy-1-tetrahydrofuran-3-yl)ethyl}-3-oxo-2,3-dihydropyridazine-4-carboxamide], the IC50 at AHR [1] (setting [4]) is greater than 2e-05 M; on AHR [2] it was 2.94e-07 M.

The record behind these values is patent US11040035B2, “3-oxo-2,6-diphenyl-2,3-dihydropyridazine-4-carboxamides” (BAYER PHARMA AKTIENGESELLSCHAFT, priority 2016, dated 2021).
